Results published in article PMC13198932, “Pyrazolone-based ERO1 inhibitors in ERO1-driven triple-negative breast cancer and SEPN1-related myopathy: Structure–activity relationship and therapeutic potential” (Pharmacological research, 2025).
Entries after “also recorded” stand apart in the source; their conditions may differ.

How the values were obtained:
[1] = molecular target: T1, Human monoamine oxidase A (Mao-A) (Homo sapiens, UniProt P21397); experiment: Mao-A activity assay (commercial kit, p-tyramine, H2O2 fluorimetry); type: biochemical; settings: 25 μM, 10 min incubation
T1 construct: purchased Sigma-Aldrich
T1 sequence (P21397 1-527): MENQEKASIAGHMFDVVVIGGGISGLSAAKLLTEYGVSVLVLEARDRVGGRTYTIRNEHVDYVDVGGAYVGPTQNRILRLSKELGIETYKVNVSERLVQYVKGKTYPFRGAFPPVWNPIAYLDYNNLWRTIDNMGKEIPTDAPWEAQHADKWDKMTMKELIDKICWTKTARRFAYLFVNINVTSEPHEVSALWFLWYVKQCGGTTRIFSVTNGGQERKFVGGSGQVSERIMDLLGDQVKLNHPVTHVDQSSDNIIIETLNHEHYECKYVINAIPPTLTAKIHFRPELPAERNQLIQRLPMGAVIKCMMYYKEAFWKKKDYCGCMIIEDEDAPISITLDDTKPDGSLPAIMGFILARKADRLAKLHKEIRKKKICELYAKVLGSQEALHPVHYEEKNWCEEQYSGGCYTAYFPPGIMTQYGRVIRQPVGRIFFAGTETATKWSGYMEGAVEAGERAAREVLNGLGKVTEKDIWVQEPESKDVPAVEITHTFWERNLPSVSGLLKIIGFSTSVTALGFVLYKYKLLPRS
Description: Mao-A activity was measured using a commercial assay kit according to the manufacturer’s instructions. Mao-A (0.837 μM) was incubated with vehicle (1 % DMSO), Clorgyline (50 μM), or various concentrations (1, 5, or 25 μM) of EN460, I2, I26, or I29 for 10 min. Mao-A catalyzes the oxidative deamination of p-tyramine, generating H2O2, which was quantified fluorimetrically (λex= 530; λem= 585 nm). Mao-A activity is presented as a percentage of the vehicle control.

MDAMB231 cells = experiment: MTS assay of metabolic activity in MDAMB231 cells; type: cell-based, human; settings: MDAMB231, dose-response, 24 h, 1 % FBS
Description: Six thousand cells (MDAMB231 and E0771) per well were seeded in 96-well plates and cultured in medium containing 1 % FBS. Cells were treated with varying concentrations of compounds and, after 24 h, incubated with MTS [3-(4,5-dimethylthiazol-2-yl)-5-(3-carboxymethoxyphenyl)-2-(4 sulfophenyl)2Htetrazolium]and PMS (phenazine methosulfate), following the instructions of the CellTiter 96® Aqueous Non-Radioactive Cell Proliferation Assay (Promega). Measurements were performed using a TECAN Infinite M200 plate reader with […] at 490 nm.

[2] = design: method as in PMID 37132383; settings: cited from earlier work
E0771 tumors = experiment: E0771 breast tumor model in syngeneic C57BL/6 J mice (tumor size, VEGFA ELISA, flow cytometry); type: in vivo; settings: 10 mg/kg i.p. once daily for 10 days
Description: A 1:1 mixture of polyethylene glycol 400 (PEG400) (Merck, 8.17003.1000) and Cremophor EL (Sigma, C5135–500G) was used to dissolve I29 at a concentration of 10 mM and served as the vehicle control. Initially, I29 was suspended in PEG400, after which Cremophor EL was added to the solution. The mixture was then heated to 80 °C until the compound was fully dissolved. Both the compound and vehicle were diluted 1:10 in physiological saline immediately prior to administration to mice at a dose of 10 mg/kg.
E0771 cells (1 × 10^6) were injected subcutaneously into both flanks of 12 female C57BL/6 J mice. Once the primary tumors reached a volume of 100–200 mm^3 (palpable), the mice were randomized into two groups and treated with either I29 or vehicle (Cremophor and PEG400). I29 was administered intraperitoneally (i.p.) once daily for 10 consecutive days at a dose of 10 mg/kg. Twenty-four hours after the final injection, the mice were euthanized. Tumors were excised, weighed, and processed for flow cytometry analysis of immune cells and immune checkpoints, including PD-1 and PD-L1, as well as for VEGFA quantification by ELISA.
The procedure was described in detail in [29]. Briefly, primary subcutaneous tumors derived from E0771 cells were minced into small fragments and enzymatically digested with 0.5 mg/mL Collagenase IV (Sigma) and 40 μg/mL DNase I in RPMI 1640 medium for 30 min at 37°C. The resulting cells were resuspended in HBSS containing 0.5 % FBS and incubated at 4°C for 20 min with the following antibodies (BioLegend): CD45 BV650 (clone 104; 0.6/100), CD11b PerCP-Cy5.5 (clone M1/70; 0.3/100), Ly6C BV421 (clone HK1.4; 0.6/100), Ly6G AF700 (clone 1A8; 0.6/100), F4/80 PE-Cy7 (clone BM8; 0.3/100), PD-L1 APC (clone 10 F.9G2; 1/100), CD3 BV605 (clone 145–2C11; 0.6/100), CD4 AF700 (clone GK1.5; 0.6/100), CD8 BV785 (clone 53–6.7; 0.6/100), and PD1 (clone 29.F1A12; 0.6/100). Cell viability was determined using the LIVE/DEAD™ Fixable Near IR Viability Kit (Invitrogen, L34981). Samples were acquired using a Cytoflex LX flow cytometer with CytExpert software, and data were analyzed with Kaluza 2.0 software (Beckman Coulter).
Within the CD45 + leukocyte population, monocytic myeloid-derived suppressor cells (M) MDSCs (CD11b+Ly6G−Ly6Chi), polymorphonuclear granulocytic (PMN−) MDSCs (CD11b+Ly6G+Ly6Clo), and tumor-associated macrophages (TAMs; CD11b+Ly6Clo/−F4/80 +) were identified. Total T lymphocytes (CD3 +) were gated within CD45 + population, and frequencies of CD3 +CD4 + and CD3 +CD8 +T cells subsets were quantified. PD1 expression was evaluated on CD4 + and CD8 + T cells, while PD-L1 expression was assessed on MDSCs and TAMs. Expression levels are reported as geometric mean fluorescence intensity (gMFI).
For VEGFA measurements in E0771 tumors, tumors were weighed, and 50 mg of each was isolated and lysed in PBS containing protease inhibitors but no EDTA. Following homogenization, samples were frozen overnight and then subjected to repeated freeze-thaw cycles the next day. Insoluble debris was removed by high-speed centrifugation, and the supernatant was quantified using the BCA assay. A total of 190 μg of protein was then analyzed using a mouse VEGF Quantikine ELISA Kit (MMV00, R&D Systems).

Compound	Mao-A activity (percentage of the vehicle control) [1]	metabolic activity (MTS assay) (MDAMB231 cells)	aqueous solubility [2]	tolerability (E0771 tumors; E0771 tumor-bearing mice)	PD-1 expression on CD4+ and CD8+ T cells (E0771 tumors; flow cytometry of tumors)	PD-L1 expression in monocytic myeloid-derived suppressor cells (M-MDSCs) (E0771 tumors; flow cytometry of tumors)	VEGFA levels in tumors (ELISA) (E0771 tumors; vs vehicle)	tumor volume (E0771 tumors; vs vehicle)	tumor weight (ex vivo) (E0771 tumors; vs vehicle)
O=C(O)c1cc(N2N=C(C(F)(F)F)/C(=C\c3ccc(-c4ccccc4)o3)C2=O)ccc1Cl [EN460, reference compound]	inhibited Mao-A activity	significantly reduced metabolic activity	poor aqueous solubility						
O=C1/C(=C/c2ccc(-c3ccccc3)o2)C(C(F)(F)F)=NN1c1ccccc1F [I29]	inhibited Mao-A activity	significantly reduced metabolic activity; also recorded: higher potency than EN460		well tolerated, with no overt signs of toxicity or weight loss observed	remained unchanged	statistically significant reduction	reduced	no significant differences	slight reduction in tumor weight
